Results: patent US11718604B2, “4-amino-6-(1,3-benzodioxole)picolinates and their use as herbicides” (Dow AgroSciences LLC, priority 2018, dated 2023)

Experiments:
Assay type in all cases: in vivo
[1] = system: CYPES: yellow nutsedge (Cyperus esculentus); assay: Post-emergent herbicidal test, yellow nutsedge; details: post-emergence, 336 h, 14 days after application, read-out: Visual Growth Reduction (%) 14 Days After Application CYPES
Method: (§1) Post-Emergent Test: Seeds or nutlets of the desired test plant species were planted in Sun Gro Metro-Mix® 360 planting mixture, which typically has a pH of 6.0 to 6.8 and an organic matter content of about 30 percent, in plastic pots with a surface area of 64 square centimeters (cm^2). When required to ensure good germination and healthy plants, a fungicide treatment and/or other chemical or physical treatment was applied. The plants were grown for 7-21 d in a greenhouse with an approximate 15 h photoperiod which was maintained at about 23-29° C. during the day and 22-28° C. during the night. Nutrients and water were added on a regular basis and supplemental lighting was provided with overhead metal halide 1000-Watt lamps as necessary. The plants were employed for testing when they reached the first or second true leaf stage.
(§2) A weighed amount, determined by the highest rate to be tested, of each test compound was placed in a 25 mL glass vial and was dissolved in 4 mL of a 97:3 v/v mixture of acetone and DMSO to obtain concentrated stock solutions. […] The concentrated stock solutions obtained were diluted with 20 mL of an aqueous mixture containing acetone, water, isopropyl alcohol, DMSO, Atplus 411F crop oil concentrate, and Triton® X-155 surfactant in a 48.5:39:10:1.5:1.0:0.02 v/v ratio to obtain spray solutions containing the highest application rates. Additional application rates were obtained by serial dilution of 12 mL of the high rate solution into a solution containing 2 mL of a 97:3 v/v mixture of acetone and DMSO and 10 mL of an aqueous mixture containing acetone, water, isopropyl alcohol, DMSO, Atplus 411F crop oil concentrate, and Triton X-155 surfactant in a 48.5:39:10:1.5:1.0:0.02 v/v ratio to obtain ½×, ¼×, ⅛× and 1/16× rates of the high rate. Compound requirements are based upon a 12 mL application volume at a rate of 187 liters per hectare (L/ha). Formulated compounds were applied to the plant material with an overhead Mandel track sprayer equipped with 8002E nozzles calibrated to deliver 187 L/ha over an application area of 0.503 square meters at a spray height of 18 inches (43 cm) above the average plant canopy height. Control plants were sprayed in the same manner with the solvent blank.
(§3) The treated plants and control plants were placed in a greenhouse as described above and watered by subirrigation to prevent wash-off of the test compounds. After 14 d, the condition of the test plants as compared with that of the untreated plants was determined visually and scored on a scale of 0 to 100 percent where 0 corresponds to no injury and 100 corresponds to complete kill.

[2] = system: DIGSA: large crabgrass (Digitaria sanguinalis); assay: Post-emergent herbicidal test, large crabgrass; details: post-emergence, 336 h, 14 days after application, read-out: Visual Growth Reduction (%) 14 Days After Application DIGSA
Method: as §1, §2, §3

[3] = system: BRSNN: oilseed rape, canola (Brassica napus); assay: Post-emergent herbicidal test, oilseed rape; details: post-emergence, 336 h, 14 days after application, read-out: Visual Growth Reduction (%) 14 Days After Application BRSNN
Method: as §1, §2, §3

[4] = system: SETFA: giant foxtail (Setaria faberi); assay: Post-emergent herbicidal test, giant foxtail; details: post-emergence, 336 h, 14 days after application, read-out: Visual Growth Reduction (%) 14 Days After Application SETFA
Method: as §1, §2, §3

[5] = system: CIRAR: Canada thistle (Cirsium arvense); assay: Post-emergent herbicidal test, Canada thistle; details: post-emergence, 336 h, 14 days after application, read-out: Visual Growth Reduction (%) 14 Days After Application CIRAR
Method: as §1, §2, §3

[6] = system: EPHHL: wild poinsettia (Euphorbia heterophylla); assay: Post-emergent herbicidal test, wild poinsettia; details: post-emergence, 336 h, 14 days after application, read-out: Visual Growth Reduction (%) 14 Days After Application EPHHL
Method: as §1, §2, §3

[7] = system: ECHCG: barnyardgrass (Echinochloa crus-galli); assay: Post-emergent herbicidal test, barnyardgrass; details: post-emergence, 336 h, 14 days after application, read-out: Visual Growth Reduction (%) 14 Days After Application ECHCG
Method: as §1, §2, §3

[8] = system: IPOHE: ivyleaf morningglory (Ipomoea hederacea); assay: Post-emergent herbicidal test, ivyleaf morningglory; details: post-emergence, 336 h, 14 days after application, read-out: Visual Growth Reduction (%) 14 Days After Application IPOHE
Method: as §1, §2, §3

[9] = system: SORVU: shattercane (Sorghum bicolor); assay: Post-emergent herbicidal test, shattercane; details: post-emergence, 336 h, 14 days after application, read-out: Visual Growth Reduction (%) 14 Days After Application SORVU
Method: as §1, §2, §3

[10] = system: ABUTH: velvetleaf (Abutilon theophrasti); assay: Post-emergent herbicidal test, velvetleaf; details: post-emergence, 336 h, 14 days after application, read-out: Visual Growth Reduction (%) 14 Days After Application ABUTH
Method: as §1, §2, §3

[11] = system: VIOTR: wild violet (Viola tricolor); assay: Post-emergent herbicidal test, wild violet; details: post-emergence, 336 h, 14 days after application, read-out: Visual Growth Reduction (%) 14 Days After Application VIOTR
Method: as §1, §2, §3

`Nc1c(F)c(-c2ccc(F)c3c2OC(F)(F)O3)nc(C(=O)O)c1Cl` [Compound 8] was tested, and the pest or weed control at 17.5 g/ha ([1]; 17.5 g ai/ha) was 0%, the pest or weed control at 35 g/ha ([1]; 35 g ai/ha) was 0% and the pest or weed control at 70 g/ha ([1]; 70 g ai/ha) was 0%. It also gave a pest or weed control at 140 g/ha ([1]; 140 g ai/ha) of 10%, a pest or weed control at 17.5 g/ha ([2]; 17.5 g ai/ha) of 0% and a pest or weed control at 35 g/ha ([2]; 35 g ai/ha) of 0%. The pest or weed control at 70 g/ha ([2]; 70 g ai/ha) was 0%, the pest or weed control at 140 g/ha ([2]; 140 g ai/ha) was 0% and the pest or weed control at 17.5 g/ha ([3]; 17.5 g ai/ha) was 70%. It also gave a pest or weed control at 35 g/ha ([3]; 35 g ai/ha) of 75%, a pest or weed control at 70 g/ha ([3]; 70 g ai/ha) of 85% and a pest or weed control at 140 g/ha ([3]; 140 g ai/ha) of 97%. For the same compound, the pest or weed control at 17.5 g/ha ([4]; 17.5 g ai/ha) was 0%, the pest or weed control at 35 g/ha ([4]; 35 g ai/ha) was 0% and the pest or weed control at 70 g/ha ([4]; 70 g ai/ha) was 0%. It also gave a pest or weed control at 140 g/ha ([4]; 140 g ai/ha) of 0%, a pest or weed control at 17.5 g/ha ([5]; 17.5 g ai/ha) of 20% and a pest or weed control at 35 g/ha ([5]; 35 g ai/ha) of 75%. The pest or weed control at 70 g/ha ([5]; 70 g ai/ha) was 80%, the pest or weed control at 140 g/ha ([5]; 140 g ai/ha) was 80% and the pest or weed control at 17.5 g/ha ([6]; 17.5 g ai/ha) was 0%. For the same compound, the pest or weed control at 35 g/ha ([6]; 35 g ai/ha) was 0%, the pest or weed control at 70 g/ha ([6]; 70 g ai/ha) was 0% and the pest or weed control at 140 g/ha ([6]; 140 g ai/ha) was 0%. The pest or weed control at 17.5 g/ha ([7]; 17.5 g ai/ha) was 0%, the pest or weed control at 35 g/ha ([7]; 35 g ai/ha) was 0% and the pest or weed control at 70 g/ha ([7]; 70 g ai/ha) was 0%. It also gave a pest or weed control at 140 g/ha ([7]; 140 g ai/ha) of 0%, a pest or weed control at 17.5 g/ha ([8]; 17.5 g ai/ha) of 0% and a pest or weed control at 35 g/ha ([8]; 35 g ai/ha) of 0%. It also gave a pest or weed control at 70 g/ha ([8]; 70 g ai/ha) of 10%, a pest or weed control at 140 g/ha ([8]; 140 g ai/ha) of 10% and a pest or weed control at 17.5 g/ha ([9]; 17.5 g ai/ha) of 0%. The pest or weed control at 35 g/ha ([9]; 35 g ai/ha) was 0%, the pest or weed control at 70 g/ha ([9]; 70 g ai/ha) was 0% and the pest or weed control at 140 g/ha ([9]; 140 g ai/ha) was 0%. It also gave a pest or weed control at 17.5 g/ha ([10]; 17.5 g ai/ha) of 30%, a pest or weed control at 35 g/ha ([10]; 35 g ai/ha) of 40% and a pest or weed control at 70 g/ha ([10]; 70 g ai/ha) of 60%. For the same compound, the pest or weed control at 140 g/ha ([10]; 140 g ai/ha) was 75%, the pest or weed control at 17.5 g/ha ([11]; 17.5 g ai/ha) was 0% and the pest or weed control at 35 g/ha ([11]; 35 g ai/ha) was 5%. For the same compound, the pest or weed control at 70 g/ha ([11]; 70 g ai/ha) was 15% and the pest or weed control at 140 g/ha ([11]; 140 g ai/ha) was 35%.
